Experiments:
Melanocortin receptor 4 [1] = biological target: T1, Melanocortin receptor 4 (Homo sapiens, UniProt P32245); test: biochemical
Melanocortin receptor 4 [2] = biological target: T2, Melanocortin receptor 4 (Homo sapiens, UniProt P32245, Y268A); test: Displacement of [125I]NDP-alpha-MSH from mutant MC4R Y268A expressed in HEK293 cells; type: cell-based
Melanocortin receptor 4 [3] = biological target: T3, Melanocortin receptor 4 (Homo sapiens, UniProt P32245, I129A); test: biochemical
Melanocortin receptor 4 [4] = biological target: T4, Melanocortin receptor 4 (Homo sapiens, UniProt P32245, Y287A); test: Antagonist activity at the mutant MC4R Y287A expressed in HEK293 cells by cAMP accumulation; type: functional, cell-based
T4 sequence (P32245 whole entry Y287A): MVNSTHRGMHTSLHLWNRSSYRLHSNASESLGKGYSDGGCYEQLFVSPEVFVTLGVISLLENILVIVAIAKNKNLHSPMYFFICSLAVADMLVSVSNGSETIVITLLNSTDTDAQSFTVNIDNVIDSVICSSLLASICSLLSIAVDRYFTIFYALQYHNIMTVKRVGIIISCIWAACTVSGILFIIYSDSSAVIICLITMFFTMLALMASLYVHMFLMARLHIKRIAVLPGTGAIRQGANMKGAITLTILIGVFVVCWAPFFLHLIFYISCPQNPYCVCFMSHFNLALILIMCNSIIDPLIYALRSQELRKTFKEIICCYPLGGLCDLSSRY

Melanocortin receptor 4 [5] = biological target: T5, Melanocortin receptor 4 (Homo sapiens, UniProt P32245, I125A); test: Displacement of [125I]NDP-alpha-MSH from mutant MC4R I125A expressed in HEK293 cells; type: cell-based
T5 sequence (P32245 whole entry I125A): as the sequence (P32245 whole entry Y287A) above, with I125A, A287Y counted along it

Melanocortin receptor 4 [6] = biological target: T2, Melanocortin receptor 4; test: Antagonist activity at the mutant MC4R Y268A expressed in HEK293 cells by cAMP accumulation; type: functional, cell-based
Melanocortin receptor 4 [7] = biological target: T6, Melanocortin receptor 4 (Homo sapiens, UniProt P32245, Y287F); test: Antagonist activity at the mutant MC4R Y287F expressed in HEK293 cells by cAMP accumulation; type: functional, cell-based
T6 sequence (P32245 whole entry Y287F): as the sequence (P32245 whole entry Y287A) above, with A287F counted along it

Melanocortin receptor 4 [8] = biological target: T7, Melanocortin receptor 4 (Homo sapiens, UniProt P32245, Y268F); test: Antagonist activity at the mutant MC4R Y268F expressed in HEK293 cells by cAMP accumulation; type: functional, cell-based
T7 sequence (P32245 whole entry Y268F): as the sequence (P32245 whole entry Y287A) above, with Y268F, A287Y counted along it

Melanocortin receptor 4 [9] = biological target: T7, Melanocortin receptor 4; test: Displacement of [125I]NDP-alpha-MSH from mutant MC4R Y268F expressed in HEK293 cells; type: cell-based
Melanocortin receptor 4 [10] = biological target: T4, Melanocortin receptor 4; test: Displacement of [125I]NDP-alpha-MSH from mutant MC4R Y287A expressed in HEK293 cells; type: cell-based
Melanocortin receptor 4 [11] = biological target: T6, Melanocortin receptor 4; test: Displacement of [125I]NDP-alpha-MSH from mutant MC4R Y287F expressed in HEK293 cells; type: cell-based
Melanocortin receptor 4 [12] = biological target: T5, Melanocortin receptor 4; test: Antagonist activity at the mutant MC4R I125A expressed in HEK293 cells by cAMP accumulation; type: functional, cell-based
Melanocortin receptor 4 [13] = biological target: T8, Melanocortin receptor 4 (Homo sapiens, UniProt P32245, I291A); test: Antagonist activity at the mutant MC4R I291A expressed in HEK293 cells by cAMP accumulation; type: functional, cell-based
T8 sequence (P32245 whole entry I291A): as the sequence (P32245 whole entry Y287A) above, with A287Y, I291A counted along it

Melanocortin receptor 4 [14] = biological target: T9, Melanocortin receptor 4 (Homo sapiens, UniProt P32245, F184A); test: Antagonist activity at the mutant MC4R F184A expressed in HEK293 cells by cAMP accumulation; type: functional, cell-based
T9 sequence (P32245 whole entry F184A): as the sequence (P32245 whole entry Y287A) above, with F184A, A287Y counted along it

Melanocortin receptor 4 [15] = biological target: T9, Melanocortin receptor 4; test: Displacement of [125I]NDP-alpha-MSH from mutant MC4R F184A expressed in HEK293 cells; type: cell-based
Melanocortin receptor 4 [16] = biological target: T1, Melanocortin receptor 4; test: Antagonist activity at the human wild type MC4R expressed in HEK293 cells by cAMP accumulation; type: functional, cell-based
Melanocortin receptor 4 [17] = biological target: T2, Melanocortin receptor 4; test: Agonist activity at the mutant MC4R Y268A expressed in HEK293 cells by cAMP accumulation; type: functional, cell-based
Melanocortin receptor 4 [18] = biological target: T3, Melanocortin receptor 4
Melanocortin receptor 4 [19] = biological target: T9, Melanocortin receptor 4; test: Agonist activity at the mutant MC4R F184A expressed in HEK293 cells by cAMP accumulation; type: functional, cell-based
Melanocortin receptor 4 [20] = biological target: T7, Melanocortin receptor 4; test: Agonist activity at the mutant MC4R Y268F expressed in HEK293 cells by cAMP accumulation; type: functional, cell-based
Melanocortin receptor 4 [21] = biological target: T6, Melanocortin receptor 4; test: Agonist activity at the mutant MC4R Y287F expressed in HEK293 cells by cAMP accumulation; type: functional, cell-based
Melanocortin receptor 4 [22] = biological target: T5, Melanocortin receptor 4; test: Agonist activity at the mutant MC4R I125A expressed in HEK293 cells by cAMP accumulation; type: functional, cell-based
Melanocortin receptor 4 [23] = biological target: T1, Melanocortin receptor 4; test: Agonist activity at the human wild type MC4R expressed in HEK293 cells by cAMP accumulation; type: functional, cell-based
Melanocortin receptor 4 [24] = biological target: T4, Melanocortin receptor 4; test: Agonist activity at the mutant MC4R Y287A expressed in HEK293 cells by cAMP accumulation; type: functional, cell-based
Melanocortin receptor 4 [25] = biological target: T8, Melanocortin receptor 4; test: Agonist activity at the mutant MC4R I291A expressed in HEK293 cells by cAMP accumulation; type: functional, cell-based

T3 sequence (P32245 whole entry I129A): as the sequence (P32245 whole entry Y287A) above, with I129A, A287Y counted along it
T1 sequence (P32245 whole entry): as the sequence (P32245 whole entry Y287A) above, with A287Y counted along it
T2 sequence (P32245 whole entry Y268A): as the sequence (P32245 whole entry Y287A) above, with Y268A, A287Y counted along it

| SMILES | Ki (Melanocortin receptor 4 [1]) | Ki (Melanocortin receptor 4 [2]) | Ki (Melanocortin receptor 4 [3]) | Ki (Melanocortin receptor 4 [5]) | Ki (Melanocortin receptor 4 [9]) | Ki (Melanocortin receptor 4 [10]) | Ki (Melanocortin receptor 4 [11]) | Ki (Melanocortin receptor 4 [15]) | EC50 (Melanocortin receptor 4 [17]) | EC50 (Melanocortin receptor 4 [18]) | EC50 (Melanocortin receptor 4 [19]) | EC50 (Melanocortin receptor 4 [20]) | EC50 (Melanocortin receptor 4 [21]) | EC50 (Melanocortin receptor 4 [22]) | EC50 (Melanocortin receptor 4 [23]) | EC50 (Melanocortin receptor 4 [24]) | EC50 (Melanocortin receptor 4 [25]) | further results |
| --- | --- | --- | --- | --- | --- | --- | --- | --- | --- | --- | --- | --- | --- | --- | --- | --- | --- | --- |
| CC[C@H](C)[C@@H]1NC(=O)[C@H]([C@@H](C)O)NC(=O)[C@H](Cc2c[nH]c3ccccc23)NC(=O)[C@H](CCCN=C(N)N)NC(=O)[C@@H](Cc2cccc3ccccc23)NC(=O)[C@H](Cc2c[nH]cn2)NC(=O)[C@H]([C@@H](C)O)NC(=O)[C@H](Cc2ccc(O)cc2)NC(=O)[C@H]([C@@H](C)O)NC(=O)[C@@H]2CCCN2C1=O | 1.5 nM | 40 nM | 14 nM | 1.3 nM | 0.92 nM | 18 nM | 1.7 nM | 0.71 nM | – | – | – | – | – | – | – | – | – | IC50 (Melanocortin receptor 4 [4]): 121 nM; IC50 (Melanocortin receptor 4 [6]): 248 nM; IC50 (Melanocortin receptor 4 [7]): 8.8 nM; IC50 (Melanocortin receptor 4 [8]): 17 nM; IC50 (Melanocortin receptor 4 [12]): 5.8 nM; IC50 (Melanocortin receptor 4 [13]): 22 nM; IC50 (Melanocortin receptor 4 [14]): 11 nM; IC50 (Melanocortin receptor 4 [16]): 16 nM |
| CN(C)[C@H]1C[C@@H](C(=O)N2CCC(Cn3cncn3)(C3CCCCC3)CC2)[C@H](c2ccc(Cl)cc2)C1 | 305 nM | 1020 nM | 3100 nM | 1250 nM | 275 nM | 2120 nM | 890 nM | 114 nM | 33 nM | 1520 nM | 1.02 nM | 6.6 nM | 10 nM | 53 nM | 9.5 nM | 418 nM | > 1000 nM | – |
| CC[C@H](C)[C@@H]1NC(=O)[C@H]([C@@H](C)O)NC(=O)[C@H](Cc2c[nH]c3ccccc23)NC(=O)[C@H](CCCN=C(N)N)NC(=O)[C@@H](Cc2ccccc2)NC(=O)[C@H](Cc2cnc[nH]2)NC(=O)[C@H]([C@@H](C)O)NC(=O)[C@H](Cc2ccc(O)cc2)NC(=O)[C@H](CO)NC(=O)[C@@H]2CCCN2C1=O | 59 nM | 1370 nM | 710 nM | 111 nM | 83 nM | 1490 nM | 90 nM | 29 nM | 270 nM | 250 nM | 3.2 nM | 12 nM | 9.5 nM | 202 nM | 11 nM | 328 nM | 250 nM | – |

— ChEMBL document CHEMBL1148620 (J Med Chem, 2006)
